Tests used:
Format in all cases: in vivo
[1] = system: Aedes aegypti females, strain sensitive to pyrethroids; experiment: Irritability test (time for first take-off in cone on impregnated paper), strain sensitive to pyrethroids
Text: (§1) In order to evaluate the irritant effect or irritability, an Ae. aegypti female which is not gorged and is from 2 to 5 days old is introduced into a polyethylene cone the bottom of which is an impregnated paper. After an adaptation time of 60 seconds, the time for first take-off is noted and recorded as time for First Take-off (or FT). After 256 seconds, if the mosquito has not taken off, the test is stopped. For each test, the flying activity of 50 females is noted, and each test is repeated three times. The females are sorted into classes according to their time for first take-off and the cumulative first take-off frequencies are used in order to calculate the time at which 50% of the females have taken off (FT50). All the tests take place under controlled conditions, at 27° C.±2 and 80% ±10 humidity.
(§2) The irritability tests were carried out (a female in a cone in contact with the impregnated surface, reading of the time for first take-off after the Ist minute has passed, 50 females per test) according to the following protocol.
Ae. aegypti females which have not fed on blood, from 2 to 5 days old, were introduced individually into plastic cones applied to treated filter papers. After an adaptation time of exactly 60 seconds, the time which has passed between the first landing and the next take-off was defined as being <<the first take-off time>> (FT). The observation was not extended for the rare mosquitoes which had not taken off after 256 seconds. For each test, 50 mosquitoes were tested individually. A simple computer program using the internal clock of a laptop computer was used in order to carry out this test and in order to analyze the results grouping the mosquitoes into classes for time of first take-off. The time at which 50% of the mosquitoes have left the treated surface (median first take-off time, FT50) and its confidence interval at 95% were then determined using the log-probit method.

[2] = system: Aedes aegypti females, a strain resistant to pyrethroids (homozygous for the kdr gene); experiment: WHO tube test on impregnated paper (KD effect and 24 h mortality), strain resistant to pyrethroids
Text: Determination of the LC100 usually takes place according to the standard tube test protocol defined by the World Health Organization (WHO) (6). Briefly, the tube test is composed of an observation tube and an exposure tube (the two tubes are removable) separated by a slide unit equipped with a partition making it possible to obstruct or re-establish the passage between the two tubes. The other end of each tube is sealed by a ventilation plug equipped with a mesh screen. Each tube is lined, for the purposes of the tests, with Whatman paper (standard qualitative filter paper ref 1002 917 or else Whatman N°1) held on the edges by two metal rings. The exposure tube receives paper impregnated with insecticide (impregnated surface on the inside) while the observation tube receives non-impregnated (neutral) paper. In order to impregnate the papers in a homogeneous fashion and to the saturation limit, 2 ml of solution constituted by 0.66 ml of silicone and 1.34 ml of acetone solution are used. For an impregnation at X mg/m^2, the quantity of active ingredient to be deposited on the paper (12 cm×15 cm i.e. 0.018 m^2) is 0.018.X mg of active ingredient (quantity to be adjusted as a function of the degree of purity of the technical product). This quantity of active ingredient is then diluted in 1.34 ml of acetone solution to which 0.66 ml of silicone is then added. The paper dries at ambient temperature, in the dark for 12 hours before the start of the test. […]
The tarsal contact tests were implemented using filter paper (standard qualitative filter paper ref 1002 917 or else Whatman N° 1) impregnated with technical quality products according to the recommendations of the World Health Organization (WHO, 6). […] The mortality and the KD effect resulting from the tarsal contacts with treated filter paper were measured using the adult mosquito test tubes of the WHO. […] For the purpose of comparison with pyrethroids, which are rapid action insecticides, the number of mosquitoes knocked down at the bottom of the tubes was counted at regular intervals of 10 min. […]

[3] = system: Aedes aegypti females, strain sensitive to pyrethroids; experiment: WHO tube test on impregnated paper (KD effect and 24 h mortality), strain sensitive to pyrethroids
Text: Determination of the LC100 usually takes place according to the standard tube test protocol defined by the World Health Organization (WHO) (6). Briefly, the tube test is composed of an observation tube and an exposure tube (the two tubes are removable) separated by a slide unit equipped with a partition making it possible to obstruct or re-establish the passage between the two tubes. The other end of each tube is sealed by a ventilation plug equipped with a mesh screen. Each tube is lined, for the purposes of the tests, with Whatman paper (standard qualitative filter paper ref 1002 917 or else Whatman N°1) held on the edges by two metal rings. The exposure tube receives paper impregnated with insecticide (impregnated surface on the inside) while the observation tube receives non-impregnated (neutral) paper. In order to impregnate the papers in a homogeneous fashion and to the saturation limit, 2 ml of solution constituted by 0.66 ml of silicone and 1.34 ml of acetone solution are used. For an impregnation at X mg/m^2, the quantity of active ingredient to be deposited on the paper (12 cm×15 cm i.e. 0.018 m^2) is 0.018.X mg of active ingredient (quantity to be adjusted as a function of the degree of purity of the technical product). This quantity of active ingredient is then diluted in 1.34 ml of acetone solution to which 0.66 ml of silicone is then added. The paper dries at ambient temperature, in the dark for 12 hours before the start of the test. The concentrations are expressed in % of active ingredient relative to the volume of silicone on the paper (as the acetone is volatile).
In order to evaluate the mortality and the KD effect, 25 Ae. aegypti females which are not gorged and are from 2 to 5 days old are introduced into the exposure tube and are left in contact for one hour at 27° C.±2 and 80%±10 humidity. The number of mosquitoes which have fallen to the bottom of the tube is noted every 10 minutes. After 60 minutes, the mosquitoes are transferred into the observation tube, with sugared juice and placed in an incubator at 27° C.±2 and 80% ±10 humidity. The mortality is noted at 24 hours. The time at which 50% of the females are knocked-down (KDT50) as well as its confidence interval are determined using a log-probit analysis (7). Four tubes are tested per solution and each test is repeated three times (triple test method).
The tarsal contact tests were implemented using filter paper (standard qualitative filter paper ref 1002 917 or else Whatman N° 1) impregnated with technical quality products according to the recommendations of the World Health Organization (WHO, 6). The filter papers were treated using solutions of insecticide and/or insect repellent diluted in acetone with silicone oil as support. The impregnation of the paper was carried out with 2 ml of the solutions to be tested, then the paper was dried for 12 h. The mortality and the KD effect resulting from the tarsal contacts with treated filter paper were measured using the adult mosquito test tubes of the WHO. The concentrations were expressed in weight of active ingredient relative to the surface of treated filter paper surface. Batches of 25 Ae. aegypti females which have not fed on blood, from 2 to 5 days old, were introduced into holding tubes and kept for 1 h (adaptation time) at 27±2° C. and 80±10% humidity. The mosquitoes were then transferred into the exposure tube and placed under dimmed light for 1 h. For the purpose of comparison with pyrethroids, which are rapid action insecticides, the number of mosquitoes knocked down at the bottom of the tubes was counted at regular intervals of 10 min. The time at which 50% of the mosquitoes are knocked down (KDT50) and its confidence interval at 95% were then determined using the log-probit method (7). The mortality was recorded after 24 hours of exposure. Each concentration was tested four times and each test was repeated three times with different groups of insects in order to consider inter-batch variability. […]

[4] = system: Aedes aegypti females, a strain resistant to pyrethroids (homozygous for the kdr gene); experiment: Irritability test (time for first take-off in cone on impregnated paper), strain resistant to pyrethroids; settings: 5.1 mg/m^2
Text: as §1, with “humidity. […]” for “humidity.”
as §2
Ae. aegypti females which have not fed on blood, from 2 to 5 days old, were introduced individually into plastic cones applied to treated filter papers. […] The time at which 50% of the mosquitoes have left the treated surface (median first take-off time, FT50) and its confidence interval at 95% were then determined using the log-probit method. […]

[5] = sensitive strain, impregnated paper

SMILES	Irritability FT50 ([1]; 364 mg/m^2 on impregnated paper)	mortality at 364 mg/m2 ([2]; 364 mg/m^2, 1 h contact, read after 24 h, resistant strain)	mortality at 364 mg/m2 ([3]; Aedes aegypti, 364 mg/m^2, 1 h contact, read after 24 h, sensitive strain)	insecticide effect (in words) ([3]; DEET alone, 364 mg/m^2)	Irritability FT50 ([1]; 0.728 mg/m^2 (LC30))	Irritability FT50 ([1]; 5.1 mg/m^2 (LC100))	mortality at 5.1 mg/m2 ([2]; 5.1 mg/m^2, 1 h contact, read after 24 h, resistant strain)	mortality at 0.728 mg/m2 ([3]; Aedes aegypti, 0.728 mg/m^2, 1 h contact, read after 24 h, sensitive strain)	mortality at 5.1 mg/m2 ([3]; Aedes aegypti, 5.1 mg/m^2, 1 h contact, read after 24 h, sensitive strain)	LC100 [3, 5]	lethal concentration 30 (LC30) [3, 5]	Irritability FT50 [4]	Irritability FT50 ([1]; 7.28 mg/m^2 on impregnated paper)	mortality at 3.64 mg/m2 [2]	mortality at 7.28 mg/m2 ([3]; Aedes aegypti)
CCN(CC)C(=O)c1cccc(C)c1 [DEET, N,N-diethyl-meta-toluamide]	24.2 s	0%	0%	does not itself have any insecticide effect	–	–	–	–	–	–	–	–	–	–	–
CC1(C)[C@H](C(=O)O[C@H](C#N)c2cccc(Oc3ccccc3)c2)[C@@H]1C=C(Br)Br [deltamethrin]	–	–	–	–	23.9 s	16.9 s	8%	34%	100%	5.1 mg/m^2	0.728 mg/m^2	34.98 s	–	–	–
CNC(=O)Oc1ccccc1OC(C)C [Propoxur, 2-isopropyloxyphenolmethylcarbamate]	–	–	–	–	–	–	–	–	–	–	7.28 mg/m^2	–	133.9 s	34.5%	34%
